Structures can show the parent of a compound that is named as a salt. *1 amine or outer side, *2 acyl side, *3 side chain or, on linkers, in order; H or OH if unused. Where a SMILES comes first, the peptide text is derived from it. Bridges are numbered along the chain shown (N, C = ends). Roman numbers before positions name the chains, in order. [ ]: non-standard residue; d: D form. Actinocin(9to1) = Cc1c2oc3c(C)ccc(C(=O)[*:1])c3nc-2c(C(=O)[*:2])c(N)c1=O; NMeV = CN[C@H](C(=O)O)C(C)C; Sar = CNCC(=O)O

Data on 23 compounds can be found in US8697387B2, “Methods for identifying agents and their use for the prevention of restenosis” (DiscoverRx Corporation, priority 2006, dated 2014).

The test system of data set [1] is BioMAP Systems (human primary cell-based assay systems: endothelial cells, smooth muscle cells, PBMC, fibroblasts). The experiment in a line: BioMAP Systems screen scored for desired anti-restenosis parameter modulation. The note with it: for Total score for desired parameter modulation, Score (out of 45): 1 point per desired activity present across BioMAP systems of Table 2, paclitaxel average of 11 runs, rapamycin average of 13 runs. The text has this: The BioMAP Systems that model the relevant biological processes (smooth muscle cell hyperplasia, tissue remodeling, inflammation etc, including the measurements of readout parameters listed in Table 1), and are used for screening are listed in Table 2. Each of the cells listed in Table 1 can be utilized in one or more of the systems described below. For example, smooth muscle cells are used in CASM3C; CASMNo; SM3C and SMNo systems. Such BioMap systems are generally primary human cell based assays. Compounds are screened in one or more such BioMap systems, usually in at least about two such systems, and may be screened in at least three, at least four, at least five, at least ten, and up to all of the assays set forth in Table 2.
These assays are scored according to their modulation of the selected readout parameters.
Human umbilical vein endothelial cells (HUVEC) were pooled from multiple donors, cultured according to standard methods, and plated into microtiter plates at passage 4. Human neonatal foreskin fibroblasts (HDF) from 3 donors were pooled and cultured according to standard methods. 24 hr before stimulation with cytokines, confluent HDF in microtitre plates were serum starved. Coronary artery endothelial cells (CAEC), coronary artery smooth muscle cells (CASMC) and umbilical artery smooth muscle cells (SMC) cultured according to standard methods. Peripheral blood mononuclear cells (PBMC) were prepared from buffy coats from normal human donors according to standard methods. Concentrations/amounts of agents added to confluent microtitre plates to build each system were as follows: cytokines (IL-1 beta, 1 ng/ml; TNF-alpha, 5 ng/ml; IFN-gamma, 20 ng/ml; TGF-beta, 5 ng/ml; IL-4, 5 ng/ml), activators (histamine, 10 microM; SAg, 20 ng/ml or LPS, 0.2 ng/ml), PBMC (7.5×10^4 cells/well).
Compounds were prepared in the solvent as directed, added 1 hr before stimulation of the cells, and were present during the 24 hr stimulation period for the measurement of parameters listed in Table 2. For proliferation, compounds added 1 hr before stimulation of the cells with cytokines, and were present during the 96 hr. If prepared in DMSO, the final concentration of solvent was 0.1% or less.
The levels of readout parameters were measured by ELISA. Briefly, microtiter plates are treated, blocked, and then incubated with primary antibodies or isotype control antibodies (0.01-0.5 microg/ml) for 1 hr. After washing, plates were incubated with a peroxidase-conjugated anti-mouse IgG secondary antibody or a biotin-conjugated anti-mouse IgG antibody for 1 hr followed by streptavidin-HRP for 30 min. Plates were washed and developed with TMB substrate and the absorbance (OD) was read at 450 nm (subtracting the background absorbance at 650 nm). Quantitation of TNF-alpha in the LPS system was done using a commercially available kit according to the manufacturer's directions. Proliferation of endothelial cells (HUVEC and CAEC), smooth muscle cels (SMC and CASMC), and PBMC (T cells) was quantitated by Alamar blue or SRB reduction.
Mean OD values for each parameter were calculated from triplicate samples per experiment. The mean value obtained for each parameter in a treated sample was then divided by the mean value from an appropriate control to generate a ratio. All ratios were then log10 transformed. 99% prediction envelopes (grey shading in Figures) were calculated for historical controls.

The subject of data set [2] is smooth muscle cell proliferation relative to endothelial cell proliferation. The experiment in a line: Proliferation of smooth muscle cells relative to endothelial cells in BioMAP systems 3C, SM3C, CANo, CASMNO, CA3C, CASM3C. It is filed as cell-based, human. The note with it: all conditions, all doses tested, independent of source of primary cells. The text has this:
One can further refine the selection of drugs for the treatment of restenosis by measuring their relative effects at multiple doses on proliferation of smooth muscle cells and endothelial cells derived from different sources (umbilical cord or coronary artery), and under different growth conditions (proliferation driven by growth factors only, or in the presence of pro-inflammatory factors that are normally found at the restenotic site). Statistical analysis of cell proliferation in BioMAP systems 3C, SM3C, CANo, CASMNO, CA3C, and CASM3C listed in Table 1 was performed for candidate drugs 8-Azaguanine, Amodiaquin Dihydrochloride Dihydrate, Atovaquone, Ciclopirox, Cis-(Z)-Flupentixol Dihydrochloride, Clofilium Tosylate, Monobenzone, Primaquine Diphosphate, Securinine, Syrosingopine, Terconazole, and Trimethylcolchicinic Acid. […]
The levels of readout parameters were measured by ELISA. […] Plates were washed and developed with TMB substrate and the absorbance (OD) was read at 450 nm (subtracting the background absorbance at 650 nm). Quantitation of TNF-alpha in the LPS system was done using a commercially available kit according to the manufacturer's directions. Proliferation of endothelial cells (HUVEC and CAEC), smooth muscle cels (SMC and CASMC), and PBMC (T cells) was quantitated by Alamar blue or SRB reduction. […]

Data set [3] concerns BioMAP Systems cells (SRB total protein, PBMC viability, cell morphology). The experiment in a line: Toxicity assessments in BioMAP Systems (SRB, PI, visual). Here is the method:
Adverse effects of compounds on cells were determined by (1) measuring alterations in total protein (Sulforodhamine B or SRB assay); (2) measuring the viability of peripheral blood mononuclear cells (incorporation of propidium iodide, PI); and (3) microscopic visualization. SRB was performed by staining cells with 0.1% sulforhodamine B after fixation with 10% TCA, and reading wells at 560 nm. PBMC viability was assessed by adding propidium iodide (10 microgram/ml) to PBMC that had been cultured for 24 hours in the presence of activators and measuring the percentage of cells that incorporated dye by flow cytometry after 10 minutes. Samples were assessed visually according to the following scheme: 2.0=cobblestone (unactivated phenotype); 1.0=activated (normal phenotype); 0.5=lacy or sparse; 0.375=rounded; 0.25=sparse and granular; 0.1=no cells in well.
Cellular toxicity in BioMAP Systems is indicated if the SRB parameter (sulforhodamine B, measure of total protein loss) is <−0.3, the PI parameter (propidium iodine, measure of lymphotoxicity) is <−0.1, and the Visual parameter (change in cell morphology) is <−0.6.

Data set [4] relates to neointimal hyperplasia after balloon vascular injury. The note with it: rat; reported by Pan et al., 2003; cited from earlier work.

On to `CCOC(=O)Oc1c(OC)cc(C(=O)O[C@@H]2C[C@@H]3CN4CCc5c([nH]c6cc(OC)ccc56)[C@H]4C[C@@H]3[C@H](C(=O)OC)[C@H]2OC)cc1OC` [Syrosingopine], for which the “Total score for desired parameter modulation, Score (out of 45)” value (“Total score” for short) in data set [1] is listed as 22.

As to `COc1cc2c(c(OC)c1OC)-c1ccc(O)c(=O)cc1C(N)CC2` (stereo not drawn) [Trimethylcolchicinic Acid], in data set [1], the “Total score” value is 29. In addition, the “Preferential effect on smooth muscle cell versus endothelial cell proliferation” value in data set [2] is given as “preferential effect on smooth muscle cells over endothelial cells”.

As to `O=C1C(O)=C([C@H]2CC[C@H](c3ccc(Cl)cc3)CC2)C(=O)c2ccccc21` [Atovaquone], the “Total score” value in data set [1] amounted to 22.

As for `CC(=O)O[C@H]1C(=O)[C@@]2(C)[C@H]([C@H](OC(=O)c3ccccc3)[C@]3(O)C[C@H](OC(=O)[C@H](O)[C@@H](NC(=O)c4ccccc4)c4ccccc4)C(C)=C1C3(C)C)[C@]1(OC(C)=O)CO[C@@H]1C[C@@H]2O` [Paclitaxel], the “Total score” value in data set [1] came out at 26 ± 2. Also, in data set [1] (tested doses), the “Activity over tested dose range in BioMAP Systems” value is “active over the entire dose range”. Moreover, the “Signs of toxicity in BioMAP Systems” value in data set [3] was “no signs of toxicity”.

For the compound `Nc1nc2nn[nH]c2c(=O)[nH]1` [Drug 8-Azaguanine, 8-Azaguanine], in data set [1], the “Total score” value was 28.

For `C[C@@H]1C[C@H]2[C@@H]3CCC4=CC(=O)C=C[C@]4(C)[C@@]3(F)[C@@H](O)C[C@]2(C)[C@@]1(O)C(=O)CO` [dexamethasone], the “Signs of toxicity in BioMAP Systems” value in data set [3] is “no signs of toxicity”.

As for `COc1cc(NC(C)CCCN)c2ncccc2c1` (stereo not drawn) [Primaquine Diphosphate], in data set [1], the “Total score” value is listed as 27.

Regarding `CO[C@H]1C[C@@H]2CC[C@@H](C)[C@@](O)(O2)C(=O)C(=O)N2CCCC[C@H]2C(=O)O[C@H]([C@H](C)C[C@@H]2CC[C@@H](O)[C@H](OC)C2)CC(=O)[C@H](C)/C=C(\C)[C@@H](O)[C@@H](OC)C(=O)[C@H](C)C[C@H](C)/C=C/C=C/C=C/1C` [Rapamycin], in data set [1], the “Total score” value amounted to 24 ± 1. In data set [3], the “Signs of toxicity in BioMAP Systems” value is listed as “no signs of toxicity”.

For `CCN(CC)Cc1cc(Nc2ccnc3cc(Cl)ccc23)ccc1O` [Amodiaquin Dihydrochloride Dihydrate], in data set [1], the “Total score” value is reported as 23.

Turning to `C=C(C)[C@@H]1CC[C@]2(CO)CC[C@]3(C)[C@H](CC[C@@H]4[C@@]5(C)CC[C@H](O)C(C)(C)[C@@H]5CC[C@]43C)[C@@H]12` [Betulin], in data set [1], the “Total score” value was determined as 31.

As for `C[C@]12CC[C@@H]3c4ccc(O)cc4CC[C@H]3[C@@H]1CC[C@@H]2O` [17beta-estradiol], the “Doses at which inactive in BioMAP Systems (lower than)” value in data set [1] was under 3.3 µM. Besides, in data set [3] (human), the “Dose showing signs of cellular toxicity” value came to 10 µM.

As for `O=c1ccc2cc(O)c(O)cc2o1` [Esculetin], the “Total score” value in data set [1] turned out to be 25. Further, the “Effect on neointimal hyperplasia after balloon vascular injury” value in data set [4] was “inhibit neointimal hyperplasia”.

In the case of `COc1cc2nc(N3CCN(C(=O)C4COc5ccccc5O4)CC3)nc(N)c2cc1OC` (stereo not drawn) [Doxazosin Mesylate], in data set [1], the “Total score” value was 22.

As to `Oc1ccc(OCc2ccccc2)cc1` [Monobenzene], in data set [1], the “Total score” value was determined as 24.

Consider `Cc1cc(C2CCCCC2)n(O)c(=O)c1` [Ciclopirox Ethanolamine], for which the “Total score” value in data set [1] was 20.

For the compound `COC(=O)C1=C(C)NC(C)=C(C(=O)OC)C1c1ccccc1[N+](=O)[O-]` [Nifedipine], the “Total score” value in data set [1] was determined as 28.

With `Cl.Cl.OCCN1CCN(CC/C=C2/c3ccccc3Sc3ccc(C(F)(F)F)cc32)CC1` [Cis-(Z)-Flupentixol Dihydrochloride], the “Total score” value in data set [1] amounted to 33.

Regarding `O=C(O)CCCc1ccc(N(CCCl)CCCl)cc1` [Chlorambucil], the “Total score” value in data set [1] is recorded as 30.

On to `Cc1c2oc3c(C)ccc(C(=O)N[C@@H]4C(=O)N[C@H](C(C)C)C(=O)N5CCC[C@H]5C(=O)N(C)CC(=O)N(C)[C@@H](C(C)C)C(=O)O[C@@H]4C)c3nc-2c(C(=O)N[C@@H]2C(=O)N[C@H](C(C)C)C(=O)N3CCC[C@H]3C(=O)N(C)CC(=O)N(C)[C@@H](C(C)C)C(=O)O[C@@H]2C)c(N)c1=O` [Actinomycin D] (I: T[dV]P[Sar][NMeV] / II: T[dV]P[Sar][NMeV]; ester I:1-I:C, II:1-II:C; linker I:N-II:N via Actinocin(9to1)), for which the “Doses at which inactive in BioMAP Systems (lower than)” value in data set [1] was under 0.0005 µM. Further, the “Dose showing signs of cellular toxicity” value in data set [3] (BioMAP Systems) was determined as 0.004572 µM.

In the case of `CC(C)N1CCN(c2ccc(OCC3COC(Cn4cncn4)(c4ccc(Cl)cc4Cl)O3)cc2)CC1` (stereo not drawn) [Terconazole], the “Total score” value in data set [1] was found to be 22.

Turning to `CC(=O)N(O)CCCCCNC(=O)CCC(=O)N(O)CCCCCNC(=O)CCC(=O)N(O)CCCCCN` [Deferoxamine Mesylate], the “Total score” value in data set [1] was found to be 26.

Consider `O=C1C=C2C=C[C@@H]3C[C@@]2(O1)[C@H]1CCCCN31` [Securinine], for which the “Total score” value in data set [1] stood at 28.

For Clofilium Tosylate, the “Total score” value in data set [1] is 22.
